This is an account of results in the supplement of paper PMC10307832.

Common to all, as to assay: relative viability (nuclei count vs DMSO), 5 days (fraction); higher = more cells survive
Compound in the experiment “Tanzisertib + Dasatinib”: O[C@H]1CC[C@H](Nc2ncc3nc(Nc4c(F)cc(F)cc4F)n([C@H]4CCOC4)c3n2)CC1 [Tanzisertib] + Cc1nc(Nc2ncc(C(=O)Nc3c(C)cccc3Cl)s2)cc(N2CCN(CCO)CC2)n1 [Dasatinib] (partner 0.075 µM)
The procedure, abridged: (§1)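 Nuclei were stained with Hoechst during a one-step fixation (final 0.05% Triton X-100, 1% formaldehyde, 1 ug/ml Hoechst) carried out 5 days after dosing, then counted on 4× images. The cells, lung cancer lines in 1536-well plates, had been dosed by pin tool the day after seeding with one drug alone or a fixed anchor-drug dose plus five library-drug doses (not always all listed) in √10 steps. Relative viability is the nuclei count in treated wells divided by that in vehicle wells, and each value is the median of duplicate plates.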

Compound in the experiment “Tanzisertib + Linsitinib”: O[C@H]1CC[C@H](Nc2ncc3nc(Nc4c(F)cc(F)cc4F)n([C@H]4CCOC4)c3n2)CC1 [Tanzisertib] + C[C@]1(O)C[C@@H](c2nc(-c3ccc4ccc(-c5ccccc5)nc4c3)c3c(N)nccn32)C1 [Linsitinib] (partner 1 µM)
The procedure, abridged: as §1

Compound in experiment [1]: C1CNCCC1C2=CC(=NN2)C3=CC=NC=C3 + CCNC(=O)c1noc(-c2cc(C(C)C)c(O)cc2O)c1-c1ccc(CN2CCOCC2)cc1 [Luminespib] (partner 0.01 µM)
The essentials:
as §1

Compound in experiment [2]: C1CNCCC1C2=CC(=NN2)C3=CC=NC=C3 + CC(C)C[C@H](NC(=O)[C@H](Cc1ccccc1)NC(=O)c1cnccn1)B(O)O [Bortezomib] (partner 0.002 µM)
The essentials:
as §1

For UMC-11, the relative viability with Tanzisertib + Dasatinib (first compound 0.08 µM) amounted to 0.487; with Tanzisertib + Dasatinib (first compound 0.253 µM), 0.456; in the experiment with Tanzisertib + Dasatinib (first compound 0.8 µM) it was 0.437; in the experiment with Tanzisertib + Dasatinib (first compound 2.53 µM) it was 0.449; with Tanzisertib + Dasatinib (first compound 8 µM) it was 0.48; with Tanzisertib + Linsitinib (first compound 0.08 µM) it was 1. Further, the relative viability amounted to 0.954 in the experiment with Tanzisertib + Linsitinib (first compound 0.253 µM); 1.03 in the experiment with Tanzisertib + Linsitinib (first compound 0.8 µM); 0.988 with Tanzisertib + Linsitinib (first compound 2.53 µM); 1.06 in the experiment with Tanzisertib + Linsitinib (first compound 8 µM); 0.959 in experiment [1] (first compound 0.08 µM); 1.19 in experiment [1] (first compound 0.8 µM). Further, the relative viability in experiment [1] (first compound 2.53 µM) stood at 1.05; in experiment [1] (first compound 8 µM), 1.14; in experiment [2] (first compound 0.08 µM), 0.643; in experiment [2] (first compound 0.8 µM) it was 0.919; in experiment [2] (first compound 2.53 µM) it was 0.786; in experiment [2] (first compound 8 µM) it was 0.688.
